What all share (format): cell-based
One experiment addresses Met (Homo sapiens (Human), UniProt P08581). Description: Met autophosphorylation ELISA in PC-3 cells. The conditions noted are these: cellular, HGF-stimulated, phospho-Met ELISA, read-out: c-Met IC50. The method, boiled down: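 Serum-starved PC-3 cells treated 1 h with compound (8-point series, 0.3% DMSO), then stimulated 10 min with 100 ng/mL HGF. Phospho-Met (panTyr) quantified in lysates by sandwich ELISA; IC50 from 4-parameter logistic fit against DMSO and reference-inhibitor controls.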
A general note: An ELISA detects its analyte on a solid surface through an enzyme-linked reagent.

A further experiment deals with Mer (Homo sapiens (Human), UniProt Q12866). Description: Mer autophosphorylation ELISA in transient transfected 293A cells. The conditions noted are these: cellular, MERTK-transfected 293A cells, phospho-Mer ELISA. How it is done:
293A cells (Thermo Fisher #R70507) were seeded at 1.5×10^6 cells/well onto 100 mm dish (Greiner #664169), in DMEM (Thermo Fisher #11995-040) containing 10% FBS (Thermo Fisher #26140-079), 1% MEM NEAA (Thermo Fisher #11140-050), 1% GlutaMax (Thermo Fisher #35050-061), and 1% Penicillin Streptomycin (Thermo Fisher #15140-122). 293A cells were incubated at 37° C., 5% CO2 for 24 h and then transfected with 6 μg MERTK DNA (Genecopoeia #EX-Z8208-M02) using TransIT LT1 transfection reagent (Mirus-Bio #MIR2305). After 24 h incubation, the transfected 293A cells were seeded at 1×10^5 cells/well onto 96-well plates (Corning #3904) in DMEM growth medium overnight. Test compounds were serially diluted to produce an 8-point dose curve in fresh serum-free medium to a final concentration of 0.3% DMSO (vehicle) and added to the cells and incubated for 1 h. Cells were then immediately lysed with 150 μL of cold IX lysis buffer [20 mM Tris, 137 mM sodium chloride, 2 mM EDTA, 10% glycerol, 1% NP-40 alternative, 1 mM activated sodium orthovanadate, 1 mM PefaBloc SC (Sigma-Aldrich #11429868001), protease/phosphatase inhibitor tablet (Thermo Fisher #A32959)]. Lysates were clarified by centrifugation and 50 μL/well added into the human phospho-Mer DuoSet IC ELISA (R&D Systems #DYC2579-2). Assay was performed according to manufacturer's instructions and sample phospho-Mer concentrations were extrapolated using human phospho-Mer control (R&D Systems #841793) as a standard. Positive control wells (100% activity) contained DMSO-treated cell lysates. Negative control wells (0% activity) contained reference inhibitor-treated cell lysates. IC50 values were calculated by nonlinear regression analysis using a 4-parameter logistic curve fit in ActivityBase XE (IDBS).

The target of a further experiment is KDR (Homo sapiens (Human), UniProt P35968). As to the kind of experiment: KDR autophosphorylation ELISA in HUVEC cells. The conditions noted are these: cellular, VEGF165-stimulated, phospho-KDR ELISA. The essentials:
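Serum-starved (24 h) HUVECs were pre-treated with compound (8-point dose curve, 0.3% DMSO final) for 1 h, then stimulated with 100 ng/mL human VEGF165 for 5 min. Lysate phospho-KDR was quantified by ELISA against a phospho-KDR standard. IC50 came from a 4-parameter logistic fit, normalized to stimulated-DMSO (100%) and unstimulated (0%) controls.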

In the next experiment the target is AXL (Homo sapiens (Human), UniProt P30530). Description: AXL autophosphorylation ELISA in A-172 cells. The conditions noted are these: cellular, Gas6-stimulated, phospho-AXL ELISA. The essentials: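 A-172 glioblastoma cells, serum-starved 24 h, got 8-point compound dilutions (0.3% DMSO) for 1 h, then 1 μg/mL human Gas6 for 15 min. Phospho-AXL in lysates was quantified by ELISA against a standard, normalized between DMSO and reference-inhibitor controls; IC50 by 4-parameter logistic fit.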

Bounds are passed on as bounds.

Sequence of KDR (P35968 20-1356): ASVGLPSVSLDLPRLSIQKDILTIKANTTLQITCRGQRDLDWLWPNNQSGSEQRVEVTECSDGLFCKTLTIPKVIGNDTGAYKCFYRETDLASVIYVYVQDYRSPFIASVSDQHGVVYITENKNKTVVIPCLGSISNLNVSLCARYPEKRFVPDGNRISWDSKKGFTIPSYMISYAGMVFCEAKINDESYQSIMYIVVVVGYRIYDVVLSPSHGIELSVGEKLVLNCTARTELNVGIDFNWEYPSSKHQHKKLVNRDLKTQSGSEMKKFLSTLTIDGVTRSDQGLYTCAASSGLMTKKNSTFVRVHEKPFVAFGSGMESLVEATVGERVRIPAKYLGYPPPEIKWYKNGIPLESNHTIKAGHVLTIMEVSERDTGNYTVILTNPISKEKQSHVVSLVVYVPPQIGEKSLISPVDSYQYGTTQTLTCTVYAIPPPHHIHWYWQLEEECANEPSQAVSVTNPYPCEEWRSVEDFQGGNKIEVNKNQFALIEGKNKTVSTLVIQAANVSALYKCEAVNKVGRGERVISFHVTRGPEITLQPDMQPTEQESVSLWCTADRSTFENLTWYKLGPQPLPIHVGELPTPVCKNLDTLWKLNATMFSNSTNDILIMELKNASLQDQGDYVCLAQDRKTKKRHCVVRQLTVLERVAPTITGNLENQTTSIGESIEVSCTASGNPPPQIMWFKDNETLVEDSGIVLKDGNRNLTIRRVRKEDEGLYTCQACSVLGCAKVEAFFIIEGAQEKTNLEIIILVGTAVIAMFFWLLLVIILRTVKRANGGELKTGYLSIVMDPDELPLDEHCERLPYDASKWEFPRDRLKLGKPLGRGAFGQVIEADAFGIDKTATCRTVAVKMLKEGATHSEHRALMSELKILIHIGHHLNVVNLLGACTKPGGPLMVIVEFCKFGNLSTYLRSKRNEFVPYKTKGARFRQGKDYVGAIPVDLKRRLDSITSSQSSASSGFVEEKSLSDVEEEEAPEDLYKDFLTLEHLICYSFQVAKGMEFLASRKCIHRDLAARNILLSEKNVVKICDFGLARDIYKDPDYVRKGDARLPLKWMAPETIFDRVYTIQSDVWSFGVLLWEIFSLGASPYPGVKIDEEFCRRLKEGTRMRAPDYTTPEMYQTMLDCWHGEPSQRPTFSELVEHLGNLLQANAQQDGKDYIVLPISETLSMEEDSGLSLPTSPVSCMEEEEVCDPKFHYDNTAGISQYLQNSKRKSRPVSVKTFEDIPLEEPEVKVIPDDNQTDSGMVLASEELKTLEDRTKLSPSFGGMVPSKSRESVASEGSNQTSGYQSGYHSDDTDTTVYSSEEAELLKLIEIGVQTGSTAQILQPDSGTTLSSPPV
Sequence of AXL (P30530 26-894): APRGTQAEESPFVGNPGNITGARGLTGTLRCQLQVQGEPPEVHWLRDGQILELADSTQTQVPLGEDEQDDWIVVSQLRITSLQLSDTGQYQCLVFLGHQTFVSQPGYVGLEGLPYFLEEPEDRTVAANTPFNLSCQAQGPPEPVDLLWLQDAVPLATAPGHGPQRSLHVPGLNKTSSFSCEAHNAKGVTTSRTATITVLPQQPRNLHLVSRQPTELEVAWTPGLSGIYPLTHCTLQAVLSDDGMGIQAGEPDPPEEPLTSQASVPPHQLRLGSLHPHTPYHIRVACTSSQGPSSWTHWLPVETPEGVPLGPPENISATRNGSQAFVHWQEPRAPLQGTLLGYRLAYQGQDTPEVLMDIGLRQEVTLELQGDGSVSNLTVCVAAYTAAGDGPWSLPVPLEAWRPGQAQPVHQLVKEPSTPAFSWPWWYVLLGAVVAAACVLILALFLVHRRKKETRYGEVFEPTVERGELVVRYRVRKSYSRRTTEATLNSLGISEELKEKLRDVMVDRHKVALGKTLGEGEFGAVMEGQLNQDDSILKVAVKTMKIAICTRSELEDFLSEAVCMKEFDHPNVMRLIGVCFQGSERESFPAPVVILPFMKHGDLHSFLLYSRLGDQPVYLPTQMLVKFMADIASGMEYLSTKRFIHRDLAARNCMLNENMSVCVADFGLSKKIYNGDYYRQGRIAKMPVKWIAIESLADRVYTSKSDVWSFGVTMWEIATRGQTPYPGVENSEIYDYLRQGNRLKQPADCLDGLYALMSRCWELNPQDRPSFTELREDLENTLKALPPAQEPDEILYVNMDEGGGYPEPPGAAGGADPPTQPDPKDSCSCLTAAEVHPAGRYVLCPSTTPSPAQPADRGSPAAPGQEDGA
Sequence of Met (P08581 25-1390): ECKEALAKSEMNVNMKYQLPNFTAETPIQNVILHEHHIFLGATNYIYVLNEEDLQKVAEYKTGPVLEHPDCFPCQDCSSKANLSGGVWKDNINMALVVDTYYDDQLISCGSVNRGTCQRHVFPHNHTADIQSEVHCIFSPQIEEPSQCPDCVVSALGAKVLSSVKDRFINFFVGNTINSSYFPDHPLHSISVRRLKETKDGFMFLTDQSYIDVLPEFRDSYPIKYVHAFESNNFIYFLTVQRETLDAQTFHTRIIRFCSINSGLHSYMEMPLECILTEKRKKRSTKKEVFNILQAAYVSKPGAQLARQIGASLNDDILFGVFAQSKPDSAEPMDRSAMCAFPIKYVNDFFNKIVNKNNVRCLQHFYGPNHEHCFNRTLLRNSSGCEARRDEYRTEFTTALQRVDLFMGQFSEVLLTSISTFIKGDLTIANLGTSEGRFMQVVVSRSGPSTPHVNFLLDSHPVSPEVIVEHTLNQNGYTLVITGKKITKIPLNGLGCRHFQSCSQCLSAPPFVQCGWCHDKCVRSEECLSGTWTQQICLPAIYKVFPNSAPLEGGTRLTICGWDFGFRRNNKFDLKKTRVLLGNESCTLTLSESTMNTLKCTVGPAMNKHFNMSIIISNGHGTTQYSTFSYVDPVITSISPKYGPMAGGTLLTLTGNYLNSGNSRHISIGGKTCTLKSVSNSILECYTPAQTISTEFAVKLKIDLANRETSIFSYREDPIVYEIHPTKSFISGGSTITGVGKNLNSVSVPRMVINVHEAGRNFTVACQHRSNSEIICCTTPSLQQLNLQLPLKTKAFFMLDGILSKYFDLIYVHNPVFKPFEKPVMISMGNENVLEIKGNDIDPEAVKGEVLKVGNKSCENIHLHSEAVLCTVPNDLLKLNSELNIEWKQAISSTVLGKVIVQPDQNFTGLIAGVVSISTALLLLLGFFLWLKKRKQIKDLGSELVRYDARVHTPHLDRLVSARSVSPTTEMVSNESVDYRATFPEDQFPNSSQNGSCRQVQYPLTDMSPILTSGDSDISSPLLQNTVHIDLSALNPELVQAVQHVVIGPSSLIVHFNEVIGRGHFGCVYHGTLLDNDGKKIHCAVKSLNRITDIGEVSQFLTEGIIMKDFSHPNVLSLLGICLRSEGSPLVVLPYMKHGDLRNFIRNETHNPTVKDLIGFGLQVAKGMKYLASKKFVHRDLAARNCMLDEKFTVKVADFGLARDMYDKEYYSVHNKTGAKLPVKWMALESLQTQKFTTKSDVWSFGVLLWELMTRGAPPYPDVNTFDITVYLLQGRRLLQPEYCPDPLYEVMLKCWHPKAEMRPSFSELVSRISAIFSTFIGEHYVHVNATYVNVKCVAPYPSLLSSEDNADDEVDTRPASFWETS
Sequence of Mer (Q12866 21-999): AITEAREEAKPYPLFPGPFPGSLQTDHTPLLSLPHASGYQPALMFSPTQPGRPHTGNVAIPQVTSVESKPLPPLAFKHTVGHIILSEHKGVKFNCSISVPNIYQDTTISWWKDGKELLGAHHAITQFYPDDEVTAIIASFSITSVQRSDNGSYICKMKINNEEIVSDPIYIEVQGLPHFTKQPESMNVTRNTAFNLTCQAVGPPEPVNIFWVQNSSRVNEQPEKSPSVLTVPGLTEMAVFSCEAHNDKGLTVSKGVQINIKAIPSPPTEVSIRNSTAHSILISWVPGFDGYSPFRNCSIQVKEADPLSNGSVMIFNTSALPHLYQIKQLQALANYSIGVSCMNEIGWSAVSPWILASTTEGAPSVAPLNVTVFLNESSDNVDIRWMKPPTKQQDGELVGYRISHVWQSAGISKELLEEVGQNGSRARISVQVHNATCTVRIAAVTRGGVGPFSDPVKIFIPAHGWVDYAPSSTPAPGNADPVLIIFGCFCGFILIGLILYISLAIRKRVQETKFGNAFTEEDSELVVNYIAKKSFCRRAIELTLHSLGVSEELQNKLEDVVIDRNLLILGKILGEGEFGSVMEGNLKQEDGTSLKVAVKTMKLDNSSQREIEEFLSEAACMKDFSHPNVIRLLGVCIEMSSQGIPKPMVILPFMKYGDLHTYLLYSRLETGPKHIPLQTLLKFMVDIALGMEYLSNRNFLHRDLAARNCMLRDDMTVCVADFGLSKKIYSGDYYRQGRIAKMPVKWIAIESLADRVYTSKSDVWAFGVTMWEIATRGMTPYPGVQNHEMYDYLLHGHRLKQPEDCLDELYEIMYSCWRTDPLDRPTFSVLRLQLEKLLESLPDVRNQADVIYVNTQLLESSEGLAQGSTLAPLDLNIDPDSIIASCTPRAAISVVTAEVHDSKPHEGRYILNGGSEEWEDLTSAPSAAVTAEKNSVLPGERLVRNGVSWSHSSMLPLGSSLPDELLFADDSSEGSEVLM

For the compound `COc1nc2c(Oc3ccc(NC(=O)C4(C(=O)Nc5ccc(F)cc5)CC4)cc3C#N)ncnc2cc1OCCCN1CCOCC1` [Compound 75, 1-N′-[3-cyano-4-[6-methoxy-7-(3-morpholin-4-ylpropoxy)pyrido[3,2-d]pyrimidin-4-yl]oxyphenyl]-1-N-(4-fluorophenyl)cyclo-propane-1,1-dicarboxamide], the IC50 on Met, against Mer, against KDR and against AXL was 0.01 to 0.1 µM in each case.

On to `COc1nc2c(Oc3c(F)cc(NC(=O)C4(C(=O)Nc5ccc(F)cc5)CC4)cc3F)ncnc2cc1OCCCN1CCOCC1` [Compound 76, 1-N′-[3,5-difluoro-4-[6-methoxy-7-(3-morpholin-4-ylpropoxy)pyrido[3,2-d]pyrimidin-4-yl]oxyphenyl]-1-N-(4-fluorophenyl)cyclo-propane-1,1-dicarboxamide], for which the IC50 on Met is 0.01 to 0.1 µM; on Mer, at most 0.01 µM; at KDR, 0.01 to 0.1 µM; on AXL, at most 0.01 µM.

For the compound `COCCOc1cc2ncnc(Oc3ccc(NC(=O)C4(C(=O)Nc5ccc(F)cc5)CC4)cc3F)c2nc1OC` [Compound 79, 1-N′-[3-fluoro-4-[6-methoxy-7-(2-methoxyethoxy)pyrido[3,2-d]pyrimidin-4-yl]oxy-phenyl]-1-N-(4-fluorophenyl)cyclopropane-1,1-dicarboxamide], the IC50 is 0.01 to 0.1 µM on Met, at most 0.01 µM on Mer, at most 0.01 µM against KDR and at most 0.01 µM on AXL.

With `COCCOc1cc2ncnc(Oc3ccc(NC(=O)C4(C(=O)Nc5ccc(F)cc5)CC4)cc3Cl)c2nc1OC` [Compound 80, 1-N′-[3-chloro-4-[6-methoxy-7-(2-methoxyethoxy)pyrido[3,2-d]pyrimidin-4-yl]oxy-phenyl]-1-N-(4-fluorophenyl)cyclo-propane-1,1-dicarboxamide], the IC50 at Met is 0.01 to 0.1 µM; against Mer, at most 0.01 µM; against KDR it was at most 0.01 µM; on AXL, 0.01 to 0.1 µM.

Consider `COCCOc1cc2ncnc(Oc3ccc(NC(=O)C4(C(=O)Nc5ccc(F)cc5)CC4)c(F)c3)c2nc1OC` [Compound 81, 1-N′-[2-fluoro-4-[6-methoxy-7-(2-methoxyethoxy)pyrido[3,2-d]pyrimidin-4-yl]oxy-phenyl]-1-N-(4-fluorophenyl)cyclopropane-1,1-dicarboxamide], for which the IC50 at Met is 0.01 to 0.1 µM; against Mer, at most 0.01 µM; on KDR, 0.01 to 0.1 µM; against AXL it was at most 0.01 µM.

As for `COCCOc1cc2ncnc(Oc3ccc(NC(=O)C4(C(=O)Nc5ccc(F)cc5)CC4)c(F)c3F)c2nc1OC` [Compound 82, 1-N′-[2,3-difluoro-4-[6-methoxy-7-(2-methoxy-ethoxy)pyrido[3,2-d]pyrimidin-4-yl]oxyphenyl]-1-N-(4-fluorophenyl)cyclo-propane-1,1-dicarboxamide], the IC50 on Met was 0.01 to 0.1 µM; at Mer it was 0.01 to 0.1 µM; on KDR, at most 0.01 µM; against AXL, at most 0.01 µM.

As for `COCCOc1cc2ncnc(Oc3cc(F)c(NC(=O)C4(C(=O)Nc5ccc(F)cc5)CC4)cc3F)c2nc1OC` [Compound 83, 1-N′-[2,5-difluoro-4-[6-methoxy-7-(2-methoxy-ethoxy)pyrido[3,2-d]pyrimidin-4-yl]oxyphenyl]-1-N-(4-fluorophenyl)cyclopropane-1,1-dicarboxamide], the IC50 at Met is 0.01 to 0.1 µM; against Mer, at most 0.01 µM; at KDR it was at most 0.01 µM; against AXL, at most 0.01 µM.

Take `Cn1cc(-c2cnc3c(Oc4ccc(NC(=O)C5(C(=O)Nc6ccc(F)cc6)CC5)cc4)ncnc3c2)cn1` [Compound 129, 1-N′-(4-fluorophenyl)-1-N-[4-[7-(1-methylpyrazol-4-yl)pyrido[3,2-d]pyrimidin-4-yl]oxyphenyl]cyclo-propane-1,1-dicarboxamide]: the IC50 lay in the range of 0.1 to 0.3 µM on Met, 0.1 to 0.3 µM against Mer, 0.1 to 0.3 µM on KDR and 0.01 to 0.1 µM at AXL.

Consider `Cn1cc(-c2cc3ncnc(Oc4ccc(NC(=O)C5(C(=O)Nc6ccc(F)cc6)CC5)cc4)c3cn2)cn1` [Compound 130, 1-N′-(4-fluorophenyl)-1-N-[4-[7-(1-methylpyrazol-4-yl)pyrido[4,3-d]pyrimidin-4-yl]oxyphenyl]cyclopropane-1,1-dicarboxamide], for which the IC50 was 0.01 to 0.1 µM on Met, 0.01 to 0.1 µM at Mer, at most 0.01 µM against KDR and 0.01 to 0.1 µM at AXL.

For `COCCOc1cc2nccc(Oc3ccc(NC(=O)C4(C(=O)Nc5ccc(F)cc5)CC4)cc3)c2nc1OC` [Compound 149, 1-N′-(4-fluorophenyl)-1-N-[4-[[6-methoxy-7-(2-methoxyethoxy)-1,5-naphthyridin-4-yl]oxy]phenyl]cyclopropane-1,1-dicarboxamide], the IC50 at Met is 0.01 to 0.1 µM; against Mer it was at most 0.01 µM; on KDR, at most 0.01 µM; on AXL, at most 0.01 µM.

Turning to `COCCOc1cc2nccc(Oc3ccc(NC(=O)C4(C(=O)Nc5ccc(F)cc5)CC4)cc3F)c2nc1OC` [Compound 150, 1-N′-[3-fluoro-4-[[6-methoxy-7-(2-methoxyethoxy)-1,5-naphthyridin-4-yl]oxy]phenyl]-1-N-(4-fluoro-phenyl)cyclopropane-1,1-dicarboxamide], the IC50 on Met, on Mer, against KDR and at AXL was at most 0.01 µM in each case.

As to `COCCOc1cc2nccc(Oc3ccc(NC(=O)C4(C(=O)Nc5ccc(F)cc5)CC4)cc3Cl)c2nc1OC` [Compound 151, 1-N′-[3-chloro-4-[[6-methoxy-7-(2-methoxyethoxy)-1,5-naphthyridin-4-yl]oxy]phenyl]-1-N-(4-fluoro-phenyl)cyclopropane-1,1-dicarboxamide], the IC50 at Met was 0.01 to 0.1 µM; against Mer, 0.01 to 0.1 µM; against KDR, at most 0.01 µM; against AXL, 0.01 to 0.1 µM.

A word on the IC50: it is the concentration at which inhibition is half-maximal.

The record behind these values is patent US11708367B2, “Compounds for the treatment of kinase-dependent disorders” (Exelixis, Inc., priority 2018, dated 2023).
